Molecules are shown by their SMILES. ≈ marks a conversion by molar mass, not a printed value. Calls of active or inactive are those of the source. No cut-off for these calls is given here. Where only a bound is given, the exact number is not on record here.

Tested on in the first data set: not listed separately
Description: physchem. The settings on record: PBS buffer, pH 7.4.
Description: Aqueous solubility of the compound in PBS buffer at pH 7.4 after 72 hrs by conventional shake flask method
Usually thermodynamic solubility stands for solubility found after equilibrating the solid with the medium. Compound `Nc1nnc(CCCCc2nnc(NC(=O)Cc3ccccc3)s2)s1` had a solubility (thermodynamic) at 72 h of 3.4 µg/mL (≈ 9.08 µM).

For `O=C(CCCCc1nnc(NC(=O)Cc2ccccc2)s1)NCCN1CCCC1`, the solubility (thermodynamic) at 72 h stood at 683 µg/mL (≈ 1640 µM).

The next data set relates to P493. Description: Antitumor activity against human P493 cells xenografted in SCID mouse assessed as reduction in tumor growth at 12.5 mg/kg, ip administered every other day from day 10 measured on days 10 to 19 relative to vehicle-treated control. Type of data set: functional, organism-based. On the set-up: dose 12.5 mg/kg.
Settings: not given
As to `Nc1nnc(CCSCCc2nnc(NC(=O)Cc3ccccc3)s2)s1`, the TGI entry was “Active”.

Tested on in a further data set: not listed separately
Description: (§1) Cytotoxicity against human P493 cells assessed as growth inhibition by trypan blue dye exclusion assay. Type of data set: functional, cell-based. The settings on record: P493-6.
One may read the IC50 as the concentration at which inhibition is half-maximal. Consider `O=C(CCCCc1nnc(NC(=O)Cc2ccccc2)s1)NCCN1CCCC1`, for which the concentration for half-maximal inhibition (IC50) came to 40 µM.

A further data set relates to P493. The description is as §1. The format is functional, cell-based.
Settings: not given
`Nc1nnc(CCSCCc2nnc(NC(=O)Cc3ccccc3)s2)s1`: the “growth inhibition (GI)” value is “Dose-dependent effect”.

For another data set, the target named is T1, Glutaminase liver isoform, mitochondrial (Mus musculus) (UniProt Q571F8).
T1 sequence (whole entry): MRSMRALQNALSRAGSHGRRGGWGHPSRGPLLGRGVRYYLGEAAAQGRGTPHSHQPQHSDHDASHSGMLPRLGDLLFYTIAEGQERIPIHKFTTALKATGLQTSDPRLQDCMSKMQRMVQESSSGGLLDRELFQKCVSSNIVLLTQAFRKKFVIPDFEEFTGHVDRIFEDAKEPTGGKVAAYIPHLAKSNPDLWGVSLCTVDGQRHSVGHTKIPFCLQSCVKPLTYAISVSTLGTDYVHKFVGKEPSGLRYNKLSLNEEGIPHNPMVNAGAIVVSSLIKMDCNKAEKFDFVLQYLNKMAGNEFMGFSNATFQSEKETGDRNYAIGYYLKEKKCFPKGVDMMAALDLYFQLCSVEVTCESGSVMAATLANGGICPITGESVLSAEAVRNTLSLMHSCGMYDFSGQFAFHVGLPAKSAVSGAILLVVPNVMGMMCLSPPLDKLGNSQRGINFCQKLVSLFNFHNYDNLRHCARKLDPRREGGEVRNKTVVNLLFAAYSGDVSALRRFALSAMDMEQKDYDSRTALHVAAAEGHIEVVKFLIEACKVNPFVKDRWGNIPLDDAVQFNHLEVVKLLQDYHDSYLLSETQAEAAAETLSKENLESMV
Description: Inhibition of mouse liver GLS2 up to 100 uM.
Settings: not given
With `Nc1nnc(CCSCCc2nnc(NC(=O)Cc3ccccc3)s2)s1`, the inhibition result was “inactive”.

For another data set, the target named is T2, Glutaminase kidney isoform, mitochondrial (Homo sapiens, UniProt O94925).
T2 sequence (O94925 whole entry): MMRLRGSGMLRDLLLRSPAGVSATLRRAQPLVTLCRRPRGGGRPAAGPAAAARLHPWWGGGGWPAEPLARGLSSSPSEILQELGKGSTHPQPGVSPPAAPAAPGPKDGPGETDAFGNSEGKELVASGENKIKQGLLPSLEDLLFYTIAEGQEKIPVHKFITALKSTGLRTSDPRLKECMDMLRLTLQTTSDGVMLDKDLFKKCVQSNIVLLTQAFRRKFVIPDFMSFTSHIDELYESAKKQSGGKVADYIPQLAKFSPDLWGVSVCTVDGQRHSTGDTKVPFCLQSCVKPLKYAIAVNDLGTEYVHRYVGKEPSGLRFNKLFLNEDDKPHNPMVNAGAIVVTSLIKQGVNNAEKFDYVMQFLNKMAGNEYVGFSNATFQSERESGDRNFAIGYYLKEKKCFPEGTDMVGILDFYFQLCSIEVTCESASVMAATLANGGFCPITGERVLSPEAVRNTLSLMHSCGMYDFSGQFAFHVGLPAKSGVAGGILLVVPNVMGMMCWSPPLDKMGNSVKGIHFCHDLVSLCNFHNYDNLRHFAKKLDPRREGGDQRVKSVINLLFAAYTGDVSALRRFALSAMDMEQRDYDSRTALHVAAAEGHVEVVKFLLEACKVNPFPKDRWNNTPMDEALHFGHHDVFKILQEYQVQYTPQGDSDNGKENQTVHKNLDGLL
Description: Inhibition of human kidney glutaminase (124 to 669) using L-[3H]-glutamine as substrate after 45 mins by GLS assay.
Settings: not given
In the case of `Nc1nnc(CCCc2nnc(NC(=O)Cc3ccccc3)s2)s1`, half-maximal inhibition (IC50) was put at 15 µM. Still for that read-out and setting: for `CN1CCCC1CCNC(=O)CCCCc1nnc(NC(=O)Cc2ccccc2)s1` (stereo not given) the value was 8.1 µM; for `Nc1nnc(CCCCc2nnc(NC(=O)c3ccccc3)s2)s1`, 7.2 µM; for `CC(C)(C)NC(=O)CCCCc1nnc(NC(=O)Cc2ccccc2)s1`, 11 µM. On the same count and under the same terms, then `Nc1nnc(CC[S+]([O-])CCc2nnc(NC(=O)Cc3ccccc3)s2)s1` (stereo not given), with 61 µM. Still for that read-out and setting: for `Nc1nnc(CCCCc2nnc(NC(=O)Cc3ccc(F)cc3)s2)s1` the value was 2.6 µM; for `O=C(CCCCc1nnc(NC(=O)Cc2ccccc2)s1)NCCN1CCC(O)CC1`, 3.8 µM.

As to `Nc1nnc(CCCCc2csc(NC(=O)Cc3ccccc3)n2)s1`, the concentration for half-maximal inhibition (IC50) is more than 100 µM. In the case of `O=C(CCCCc1nnc(NC(=O)Cc2ccccc2)s1)NCCN1CCC(c2ccccc2)CC1`, the 50% inhibitory concentration (IC50) amounted to 1.4 µM. On the same count and under the same terms, for `CCN(CC)CCNC(=O)CCCCc1nnc(NC(=O)Cc2ccccc2)s1` the value was 26 µM. The same measure, in the same setting: for `CN(CCN1CCCC1)C(=O)CCCCc1nnc(NC(=O)Cc2ccccc2)s1` the value was more than 100 µM; for `Cc1ccc(CC(=O)Nc2nnc(CCCCc3nnc(N)s3)s2)cc1`, 4.5 µM; for `CN(C)c1ccc(CNC(=O)CCCCc2nnc(NC(=O)Cc3ccccc3)s2)cc1`, 48 µM. The same measure, in the same setting: then `CN(C(=O)CCCCc1nnc(NC(=O)Cc2ccccc2)s1)C(C)(C)C`, with 5.2 µM; and `CC(C(=O)Nc1nnc(CCCCc2nnc(N)s2)s1)c1ccccc1` (stereo not given), with 12 µM. Compound `O=C(CCCCc1nnc(NC(=O)Cc2ccccc2)s1)NCc1ccccc1` came in with an IC50 of more than 100 µM. The compound `O=C(CCCCc1nnc(NC(=O)Cc2ccccc2)s1)NCCN1CCCCC1` came in with a concentration for half-maximal inhibition (IC50) of 10 µM. On the same count and under the same terms, then `Nc1nnc(CCCCc2nnc(NC(=O)CCc3ccccc3)s2)s1`, with more than 100 µM; and `Nc1nnc(CCCCc2cnc(NC(=O)Cc3ccccc3)s2)s1`, with more than 100 µM. For the compound `O=C(CCCCc1nnc(NC(=O)Cc2ccccc2)s1)NCc1ccc(C(F)(F)F)cc1`, the IC50 is more than 100 µM. The same measure, in the same setting: for `NCCNC(=O)CCCCc1nnc(NC(=O)Cc2ccccc2)s1` the value was more than 100 µM; for `Nc1nnc(CCCCc2nnc(NC(=O)CC3CCCCC3)s2)s1`, 22 µM.

Another data set has as its system Liver. Description: Metabolic stability in mouse liver microsomes at 5 uM up to 1 hr by LC/MS/MS analysis.
Settings: not given
The format is ADME, Microsome. (In general: Liver microsomes are a subcellular fraction often used to study metabolism.)
With `Nc1nnc(CCCCc2nnc(NC(=O)Cc3ccccc3)s2)s1`, the Stability result is reported as “Stable”. Regarding `O=C(CCCCc1nnc(NC(=O)Cc2ccccc2)s1)NCCN1CCCC1`, the Stability entry is recorded as “Stable”.

The record behind these values is ChEMBL document CHEMBL2177047, “Design, synthesis, and pharmacological evaluation of bis-2-(5-phenylacetamido-1,2,4-thiadiazol-2-yl)ethyl sulfide 3 (BPTES) analogs as glutaminase inhibitors” (J Med Chem, 2012).
